Results from patent publication US12344599B2, “Prodigiosin analogs and methods of use” (Institute For Cancer Research, priority 2016, dated 2025).
Read-outs that look alike come from different tables or passages of the source. Blank lines part the entries; values can stand above or below the compound they belong to. * marks the point of attachment. Cbz = O=C(OCc1ccccc1)*; CH2F = FC*

Tests used:
Assay type in all cases: cell-based, human
[1] = tested on: γ-H2AX in HT29 and SW480 cells; assay: γ-H2AX DNA damage marker, western blot and immunofluorescence staining
Experimental: (§1) After treatment, protein lysates were collected for Western blot analysis. A total of […] of protein was used for SDS-PAGE. After primary and secondary antibody incubations, the signal was detected by a chemiluminescence detection kit, imaged by Syngene (Imgen Technologies). Antibodies for PUMA (for IHC), p53 (Santa Cruz Biotechnology), caspase 8, cleaved caspase 8, caspase 9, caspase 3, cleavage PARP, eIF2α, p-eIF2α (Ser51), CHOP, ATF4, DR5, FOXO3a, p-FOXO3a (Ser253), NF-κB p65, p-NF-κB p65 (Ser536), c-Jun, p-c-Jun (Ser63), JNK, p-JNK (Thr183/Tyr185), PUMA (for WB), c-Myc, phosphor-S62-cMyc (Cell Signaling Technology), Noxa, p21 (Calbiochem), p73 (Bethyl laboratories Inc), Ran (BD Biosciences), […] (Sigma).
A total of 5×10^4 cells were seeded in each well of 8-well chamber slides. After treatment, cells were fixed and permeabilized by methanol:acetone (1:1) for 20 minutes at −20° C. Fixed cells were blocked by 2% BSA for 1 hour, followed by primary antibody incubation for 1 hours and Cy3-conjuated secondary antibody incubation for 1 hour at room temperature. After washing, cells were stained with DAPI for 10 minutes at room temperature. Cells were mounted, and examined by fluorescence microscopy.
DNA damage induces the p53 pathway and leads to cell apoptosis. To study whether the p53 pathway restoration by compound PG3-Oc is due to DNA damage, the uptake and localization of PG3-Oc was investigated in cells. PG3-Oc and prodigiosin are red fluorescent compounds, and their localization in live cells can be monitored by fluorescence microscopy. PG3-Oc and prodigiosin rapidly entered cells within 2 hours of incubation and remained in the cytosol at the 8-hour time point in HT29 and SW480 cells (FIG. 46). […] Baldino, et al. reported that prodigiosin localized to the cytoplasm, but not within the nucleus, and no γ-H2AX signal was detected in A549 cancer cells (Baldino et al., Bioorg Med Chem Lett, 2006, 16, 701-704). […]

p53-target genes = assay: Western blotting of p53-target genes (Example 1)
Experimental: After treatment, protein lysates were collected for Western blot analysis. Twenty-five micrograms of protein were used for SDS-PAGE. After primary and secondary antibody incubations, the signal was detected with a chemiluminescent detection kit, followed by autoradiography or Syngen. […] In FIG. 10, p53-null HCT116 cells were treated with P01 and P306, alone or in combination with SiCon or SiTAp73, in various concentrations for 6 hours, and tested for p73 (C.S.), p73 (Bethyl), P63-α, p53, DR5, Puma, P21, and Ran proteins.

[2] = tested on: SW480, DLD1 and p53-null cell line HCT116; assay: CellTiter-Glo luminescent cell viability assay (Example 1)
Experimental: SW480, DLD-1, DLD1-p73KD, HCT116, and p53-null HCT116, MRC5 and Wi38 cells were seeded at 5,000 cells per well on 96-well plates. […] Then, cells were mixed with an equal volume of CellTiter-Glo® reagents (Promega), following the manufacturer's protocol, and bioluminescence imaging was measured using the IVIS imager.

c-Myc and PUMA = assay: Western blot of c-Myc, PUMA and p53 target genes; conditions: HT29 cells
Experimental: as §1
To test this hypothesis, two ERK1/2 inhibitors that act by different mechanisms were used. U0126 is an indirect ERK1/2 inhibitor. It inhibits MEK1 kinase and blocks the phosphorylation of ERK1/2. […] Consistent with a previous publication (Choi et al., Genes Dev, 2010, 24, 1236-1241), SCH772984 can inhibit ERK1/2 function after ERK1/2 is phosphorylated (FIG. 73), and the same is observed for PG3-Oc (FIG. 73).

HT29 cells = assay: Flow cytometry sub-G1 (PI staining) analysis; conditions: HT29, 20 μM Z-VAD-FMK co-treated with 1 μM PG3-Oc, 48 hours
Experimental: • 1) Cell lines: HT29, SW480, DLD-1, HCT116, and p53-null HCT116 cells, H1975, MDA-MD-231, U251, FaDu, CAL-27, PANC-1, Aspc-1, and MRC5 were obtained from the ATCC and cultured as recommended. Cells were regularly authenticated by bioluminescence, growth, and morphologic observation. The cells were routinely examined for Mycoplasma and all cell lines underwent STR authentication. • 2) Western blotting: After treatment, protein lysates were collected for Western blot analysis. 15 μg of protein was used for SDS-PAGE. After primary and secondary antibody incubations, the signal was detected by chemiluminescent detection kit, imaged by Syngene (Imgen Technologies). Antibodies for Puma, FLIPL/S and p53 (Santa Cruz Biotechnology), cleaved caspase 8, caspase 9, caspase 3, cleavage PARP, eIF2α, p-eIF2α(Ser51), CHOP, ATF4, DR5, FOXO3a, p-FOXO3a(Ser253), NF-κB p65, p-NF-κB p65(Ser536), c-Jun, p-c-Jun(Ser63), JNK, p-JNK(Thr183/Tyr185) (Cell Signaling Technology), Noxa, p21 (Calbiochem), p73 (Bethyl laboratories Inc), Ran (BD Biosciences), […] (Sigma). • 3) Cell viability assay: Cells were seeded in 96-well plate (6×10^3 cells/well). Cells were treated with different concentrations of compounds or dimethyl sulfoxide (DMSO) control for 72 hours. The cell viability was assessed by CellTiterGlo bioluminescent cell proliferation assay (Promega), following the manufacturer's protocol. Bioluminescence imaging was measured using the IVIS imager. Percentage of cell viability (mean±SEM) at each dose was calculated against the respective DMSO control. The IC50 values were determined from the sigmoidal dose-response curves using GraphPad Prims4. • 4) Caspase activity assay: Cells were seeded in 96-well plate (1×10^4 cells/well). Cells were treated with different concentrations of compounds or DMSO control for 24 hours. The caspase 3/7 activity was assessed by Caspase-Glo® 3/7 Assay kit (Promega), following the manufacturer's protocol. Bioluminescence imaging was measured using the IVIS imager. Caspase activity was normalized to cell numbers and compared to those of DMSO treatment as control in each cell line. Data is reported as mean RLU+SEM (n=3). • 5) Colony formation assays: Five hundred cells were seeded per well on 6-well plates and treated with different concentrations of compounds for 24 hours, then, cells were cultured with drug-free complete medium for 2 weeks with fresh medium changed every 7 days. Cells were fixed with 10% formalin and stained with 0.05% crystal violet at the end of 2 weeks period of cell culture. • 6) Flow cytometry assay: • a) Cell Cycle Analysis: Propidium iodide (PI) staining and flow cytometry were used to determine the degree of cellular apoptosis. Cells were seeded at 3×10^5 cells/well in six-well plates. Cells were treated with PG3-Oc for 48 hours. Cells were harvested, fixed by 70% ethanol, and stained by propidium iodide, then flow cytometry was performed as previously described (Smithen et al., Org. Biomol. Chem., 2013, 11, 62-68). The percentage of hypodiploid cells (sub-G1) was used to quantify dead cells in apoptosis assays. • b) Early apoptosis detection: Cells were seeded at 3×10^5 cells/well in six-well plates. Cells were treated with PG3-Oc for 48 hours. […]

Compound: CCc1c2c(nc3ccc(OC(=O)N4CCC(N5CCCCC5)CC4)cc13)-c1cc3c(c(=O)n1C2)COC(=O)[C@]3(O)CC [CPT-11, Irinotecan]
induction of 65-H2AX (DNA damage marker) / foci formation [1]: significantly induced

IC50 values ([2]; SW480, DLD1, p53-null HCT116, 72 hours): within nanomolar range
Compound: CCc1c(C)[nH]c(/C=C2\N=C(c3ccc[nH]3)C=C2OC)c1C [P301]
expression of p53-target genes (p53-target genes): induced the expression of p53-target genes via p73
induction of cell death ([2]; SW480, DLD1, p53-null HCT116): potently induced cell death

Compound: O=C(Nc1ccc2[nH]nc(-c3ccncc3)c2c1)[C@@H]1CCN(CC(=O)N2CCN(c3ccc(-c4ncccn4)cc3)CC2)C1 [SCH772984]
effect on c-Myc and PUMA (c-Myc and PUMA): potently induced the downregulation of c-Myc and the upregulation of PUMA
effect on p53 target genes DR5, p21 and Noxa (c-Myc and PUMA): did not induce DR5, shown mild upregulation of p21 and suppressed Noxa expression

Compound: N#CC(=C(/N)Sc1ccccc1N)/C(C#N)=C(\N)Sc1ccccc1N [U0126]
effect on c-Myc and PUMA (c-Myc and PUMA): potently induced the downregulation of c-Myc and the upregulation of PUMA

Compound: CCCCCc1cc(/C=C2\N=C(c3ccc[nH]3)C=C2OC)[nH]c1C [prodigiosin, Prodigiosin]
induction of 65-H2AX (DNA damage marker) / foci formation ([1]; HT29 and SW480, 8-hour treatment): did not induce

Compound: Cbz-Val-Ala-Asp-CH2F [reference compound]
formation of a sub-G1 population induced by PG3-Oc (HT29 cells): completely blocked
